Values after ≈ are worked out from the molar mass of the structure shown.
Key:
[1] = Thermodynamic (aqueous) solubility, 24 hours at 25° C., HPLC quantitation; assay type: physicochemical; details: for solubility thermodynamic at 24 h: thermodynamic from solid
Method: The suspension was equilibrated at 25° C., on a Heidolph plate shaker set to 750 rpm for 24 hours. The pH of the sample solutions was periodically checked and, if required, adjusted with 0.2M NaOH to ensure that the desired pH was maintained (±0.05) throughout. The pH of the saturated solution after this time was measured and the suspension filtered through a glass fibre C filter (particle retention 1.2 μm) and diluted appropriately.
Quantitation was by HPLC with reference to a standard solution of approximately 0.15 mg/ml in 1:1 MeCN/H2O. Different volumes of the standard, diluted and undiluted sample solutions were injected.
Different volumes of the standard, diluted and undiluted sample solutions were injected. The solubility was calculated using the peak areas determined by integration of the peak found at the same retention time as the principal peak in the standard injection.
Analysis was performed on an Agilent HP1100 series system equipped with a diode array detector and using ChemStation software.

[2] = Intrinsic dissolution rate (IDR), Sirius inForm, compressed discs; assay type: physicochemical; details: 37° C., pH 5.0 media, 1 hour, 6 mm disc
Method: IDR Method Ca. 40 mg material was compressed under 100 kg for 2 minutes to form non-disintegrating discs. The discs were then plugged with a bung so that only one surface was exposed to the media during analysis, and transferred to the dissolution apparatus (Sirius inForm). The volume of the assay was 40 ml and a stir speed of 225 rpm was used. Analysis was performed at 37° C. in pH 5.0 media for 1 hour with UV spectra collected every 30 seconds, using a 20 mm path length probe.

[3] = Media DI Water, pH 7.8, 25° C., 24 hours, final pH 5.24-5.42

`COc1c(Cl)ccc(Cl)c1C(=O)O` [Dicamba freeform, 3,6-Dichloro-2-methoxybenzoic acid] showed a solubility thermodynamic at 24 h ([1]; pH 4.0 acetic acid/sodium acetate media, aqueous buffer, pH 4.0 media (42.4 ml 0.1 M acetic acid mixed with 7.6 ml 0.1 M sodium acetate), 25° C., 24 hours, read-out: Thermodynamic solubility of second component) greater than 13800 µg/mL.

In the case of `Nc1c(Cl)c(F)nc(OCC(=O)O)c1Cl` [Fluroxypyr freeform, Fluroxypyr], the “IDR of second component” value [2] is reported as 956.9 μg/min/cm^2 and the solubility thermodynamic at 24 h ([1]; 25 °C, pH 4.04, water) is reported as 290 µg/mL (≈ 1140 µM).

For `CCc1cc(C)cc(CC)c1-c1c(OC(=O)C(C)(C)C)n2n(c1=O)CCOCC2` [Pinoxaden freeform, [8-(2,6-diethyl-4-methylphenyl)-7-oxo-1,2,4,5-tetrahydropyrazolo[1,2-d][1,4,5]oxadiazepin-9-yl] 2,2-dimethylpropanoate], the “IDR of pinoxaden component” value [2] was 69.4 μg/min/cm^2, the solubility thermodynamic at 24 h ([1]; aqueous buffer, pH 4.0 media (42.4 ml 0.1 M acetic acid mixed with 7.6 ml 0.1 M sodium acetate), 25° C., 24 hours, read-out: Thermodynamic solubility of pinoxaden component) was 280 µg/mL (≈ 699 µM) and the solubility thermodynamic at 24 h ([1]; Media DI Water, 25° C., 24 hours, final pH 3.97-4.10, read-out: Thermodynamic solubility of pinoxaden component) was roughly 230 µg/mL (≈ 574 µM).

With “Pinoxaden:2,4-D (1:1) Molecular Complex [Example 3]” the “Thermodynamic solubility of pinoxaden component” value [1, 3] was 200 µg/mL and the “Thermodynamic solubility of second component” value [1, 3] was 120 µg/mL.

Reference: US20220369641A1, “MOLECULAR COMPLEXES” (priority 2019, published 2022)
